# Read-outs that look alike come from different tables or passages of the source.
# Assays:
# Assay in all cases: Inhibition assay, microfluidic LabChip (Nanosyn)
# Assay type in all cases: biochemical
# CDK1/B = CDK1/B (Homo sapiens, UniProt P06493); details: Table 3a
# Method: (§1) The reaction was terminated by the addition of EDTA. The plates were analyzed using a Caliper LabChip 3000.
# (§2) Additional inhibition assays were performed as described above.
# CDK4-CYCLIND1 = target: T1, CDK4-CYCLIND1 (Homo sapiens, UniProt P11802); details: read-out: CDK4 CyclinD1 IC50
# T1 construct: purchased Invitrogen
# T1 sequence (P11802 whole entry): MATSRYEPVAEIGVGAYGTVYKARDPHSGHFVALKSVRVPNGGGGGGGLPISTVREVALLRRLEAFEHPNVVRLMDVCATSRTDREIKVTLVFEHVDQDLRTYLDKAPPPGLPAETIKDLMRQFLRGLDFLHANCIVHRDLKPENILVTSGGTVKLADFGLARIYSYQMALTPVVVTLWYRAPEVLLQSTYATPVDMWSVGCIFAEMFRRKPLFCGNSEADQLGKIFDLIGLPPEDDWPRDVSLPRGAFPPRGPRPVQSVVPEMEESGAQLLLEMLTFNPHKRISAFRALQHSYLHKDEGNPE
# T1 sequence (P24385 whole entry partner): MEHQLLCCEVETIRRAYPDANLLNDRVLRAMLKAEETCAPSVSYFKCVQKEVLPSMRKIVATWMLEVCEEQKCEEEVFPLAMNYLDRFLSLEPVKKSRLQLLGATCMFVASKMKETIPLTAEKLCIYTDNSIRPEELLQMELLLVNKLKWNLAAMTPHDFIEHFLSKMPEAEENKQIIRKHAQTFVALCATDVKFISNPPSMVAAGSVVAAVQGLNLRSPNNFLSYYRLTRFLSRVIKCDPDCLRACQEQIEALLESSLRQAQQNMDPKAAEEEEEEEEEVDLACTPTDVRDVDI
# Method: as §1, §2
# CDK7 CyclinH = CDK7 CyclinH (Homo sapiens, UniProt P50613);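 also: values are IC50 from a concentration-response series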
# Sequence of CDK7 CyclinH (P50613 whole entry): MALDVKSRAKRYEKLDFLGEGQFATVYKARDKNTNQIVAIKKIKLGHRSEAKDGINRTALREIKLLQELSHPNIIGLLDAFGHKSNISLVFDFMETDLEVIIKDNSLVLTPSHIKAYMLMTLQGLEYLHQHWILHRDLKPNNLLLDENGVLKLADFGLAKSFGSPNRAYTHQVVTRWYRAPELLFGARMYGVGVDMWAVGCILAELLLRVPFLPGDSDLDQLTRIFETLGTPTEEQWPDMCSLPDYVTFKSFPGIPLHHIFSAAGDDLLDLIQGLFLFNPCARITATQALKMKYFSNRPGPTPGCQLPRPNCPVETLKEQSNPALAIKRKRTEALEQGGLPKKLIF
# Sequence of CDK7 CyclinH (P51946 whole entry partner): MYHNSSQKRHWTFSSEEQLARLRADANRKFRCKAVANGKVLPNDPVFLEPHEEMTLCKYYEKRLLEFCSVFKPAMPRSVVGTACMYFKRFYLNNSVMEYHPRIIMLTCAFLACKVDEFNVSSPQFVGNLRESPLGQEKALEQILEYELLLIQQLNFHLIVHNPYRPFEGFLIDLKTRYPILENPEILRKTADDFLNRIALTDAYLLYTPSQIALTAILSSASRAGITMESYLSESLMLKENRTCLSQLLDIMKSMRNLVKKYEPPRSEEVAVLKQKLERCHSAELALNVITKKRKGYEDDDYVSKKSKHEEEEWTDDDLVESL
# Sequence of CDK7 CyclinH (P51948 whole entry partner): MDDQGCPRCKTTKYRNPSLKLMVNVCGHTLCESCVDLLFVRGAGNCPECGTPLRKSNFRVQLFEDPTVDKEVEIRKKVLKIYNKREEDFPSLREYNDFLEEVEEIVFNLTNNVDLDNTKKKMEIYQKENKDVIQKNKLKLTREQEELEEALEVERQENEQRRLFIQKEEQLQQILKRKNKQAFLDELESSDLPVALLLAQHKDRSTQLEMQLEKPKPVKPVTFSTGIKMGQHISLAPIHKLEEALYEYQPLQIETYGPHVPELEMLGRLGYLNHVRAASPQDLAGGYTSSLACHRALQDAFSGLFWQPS
# Method: as §1, §2
# CDK2-CYCLINA = target: T2, CDK2-CYCLINA (Homo sapiens, UniProt P24941);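 also: values are IC50 from a concentration-response series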
# T2 construct: purchased Millipore
# Method: as §1, §2
# CDK9-CYCLINT1 = target: T3, CDK9-CYCLINT1 (Homo sapiens, UniProt P50750);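 also: values are IC50 from a concentration-response series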
# T3 construct: purchased Carna
# T3 sequence (P50750 whole entry): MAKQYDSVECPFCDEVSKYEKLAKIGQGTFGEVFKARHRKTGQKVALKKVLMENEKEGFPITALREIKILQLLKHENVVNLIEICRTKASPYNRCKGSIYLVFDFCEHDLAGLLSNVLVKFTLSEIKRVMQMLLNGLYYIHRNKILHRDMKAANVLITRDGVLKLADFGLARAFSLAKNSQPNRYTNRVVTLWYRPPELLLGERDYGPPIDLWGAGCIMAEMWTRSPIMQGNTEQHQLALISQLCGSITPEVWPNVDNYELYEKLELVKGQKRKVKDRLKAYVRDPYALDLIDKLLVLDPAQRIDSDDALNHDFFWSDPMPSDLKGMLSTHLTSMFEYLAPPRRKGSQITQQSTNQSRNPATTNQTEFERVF
# T3 sequence (O60563 whole entry partner): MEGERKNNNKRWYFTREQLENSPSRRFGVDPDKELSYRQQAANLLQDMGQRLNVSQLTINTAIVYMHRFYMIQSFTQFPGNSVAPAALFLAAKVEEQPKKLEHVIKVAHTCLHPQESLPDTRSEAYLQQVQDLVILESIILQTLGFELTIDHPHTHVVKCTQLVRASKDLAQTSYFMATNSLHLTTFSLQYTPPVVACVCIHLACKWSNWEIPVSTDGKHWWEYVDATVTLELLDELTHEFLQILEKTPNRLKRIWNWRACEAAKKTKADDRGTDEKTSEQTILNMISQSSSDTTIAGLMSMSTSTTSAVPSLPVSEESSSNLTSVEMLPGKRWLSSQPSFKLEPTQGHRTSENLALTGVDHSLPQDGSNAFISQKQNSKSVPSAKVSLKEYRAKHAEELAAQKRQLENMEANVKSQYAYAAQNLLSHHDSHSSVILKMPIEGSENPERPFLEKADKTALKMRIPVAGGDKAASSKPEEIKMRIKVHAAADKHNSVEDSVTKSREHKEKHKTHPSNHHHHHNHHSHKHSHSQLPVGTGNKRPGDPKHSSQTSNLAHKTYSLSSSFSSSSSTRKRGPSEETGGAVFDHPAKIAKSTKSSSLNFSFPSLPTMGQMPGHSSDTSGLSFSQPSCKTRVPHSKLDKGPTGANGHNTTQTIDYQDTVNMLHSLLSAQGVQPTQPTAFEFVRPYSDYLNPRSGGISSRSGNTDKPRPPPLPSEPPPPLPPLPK
# Method: as §1, §2
# CDK6-CYCLIND3 = target: T4, CDK6-CYCLIND3 (Homo sapiens, UniProt Q00534); details: read-out: CDK6 CyclinD3 IC50
# T4 construct: purchased Carna
# T4 sequence (Q00534 whole entry): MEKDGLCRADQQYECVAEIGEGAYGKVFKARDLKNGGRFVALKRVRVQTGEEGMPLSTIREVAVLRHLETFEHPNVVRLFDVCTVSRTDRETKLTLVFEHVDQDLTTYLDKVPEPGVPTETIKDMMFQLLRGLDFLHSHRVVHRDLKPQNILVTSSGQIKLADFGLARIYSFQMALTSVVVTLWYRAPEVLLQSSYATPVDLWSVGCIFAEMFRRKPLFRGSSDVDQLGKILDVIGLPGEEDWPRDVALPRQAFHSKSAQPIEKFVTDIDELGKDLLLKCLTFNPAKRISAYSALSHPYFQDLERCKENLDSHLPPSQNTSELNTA
# T4 sequence (P30281 whole entry partner): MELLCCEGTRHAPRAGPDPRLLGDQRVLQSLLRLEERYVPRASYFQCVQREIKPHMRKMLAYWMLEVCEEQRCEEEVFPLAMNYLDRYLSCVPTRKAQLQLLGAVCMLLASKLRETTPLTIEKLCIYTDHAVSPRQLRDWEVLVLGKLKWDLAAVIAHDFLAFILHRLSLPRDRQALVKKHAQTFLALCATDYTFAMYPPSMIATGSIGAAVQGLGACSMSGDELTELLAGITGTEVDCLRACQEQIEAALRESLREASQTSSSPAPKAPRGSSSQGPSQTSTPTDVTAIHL
# Method: as §1, §2
# Sequence of CDK1/B (P06493 whole entry): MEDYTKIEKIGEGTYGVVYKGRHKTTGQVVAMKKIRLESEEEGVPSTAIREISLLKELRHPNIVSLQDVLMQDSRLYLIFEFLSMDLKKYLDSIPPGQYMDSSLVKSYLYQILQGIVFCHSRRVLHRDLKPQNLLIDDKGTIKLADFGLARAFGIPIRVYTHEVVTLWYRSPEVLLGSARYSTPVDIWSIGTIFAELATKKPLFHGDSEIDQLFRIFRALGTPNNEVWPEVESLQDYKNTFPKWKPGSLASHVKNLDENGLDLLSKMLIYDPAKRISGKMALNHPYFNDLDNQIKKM
# Sequence of CDK1/B (P14635 whole entry partner): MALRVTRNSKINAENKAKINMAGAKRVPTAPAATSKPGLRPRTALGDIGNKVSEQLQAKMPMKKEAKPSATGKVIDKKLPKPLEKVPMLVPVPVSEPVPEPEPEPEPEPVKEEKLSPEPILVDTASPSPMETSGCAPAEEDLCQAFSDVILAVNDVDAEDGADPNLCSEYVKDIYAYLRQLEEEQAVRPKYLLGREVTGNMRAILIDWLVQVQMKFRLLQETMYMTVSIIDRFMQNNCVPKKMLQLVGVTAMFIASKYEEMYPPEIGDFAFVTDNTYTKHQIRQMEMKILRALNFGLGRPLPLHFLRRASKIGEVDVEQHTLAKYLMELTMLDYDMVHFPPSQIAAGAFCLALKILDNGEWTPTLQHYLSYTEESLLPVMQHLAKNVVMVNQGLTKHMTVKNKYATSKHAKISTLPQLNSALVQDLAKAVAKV
SMILES,IC50 (CDK1/B) [nM],IC50 (CDK4-CYCLIND1; Table 3a) [nM],IC50 (CDK4-CYCLIND1; Table 3b) [nM],IC50 (CDK7 CyclinH; Table 3a) [nM],IC50 (CDK7 CyclinH; Table 3b) [nM],IC50 (CDK2-CYCLINA; Table 3a) [nM],IC50 (CDK2-CYCLINA; Table 3b) [nM],IC50 (CDK9-CYCLINT1; Table 3a) [nM],IC50 (CDK6-CYCLIND3; Table 3a) [nM],IC50 (CDK6-CYCLIND3; Table 3b) [nM],IC50 (CDK9-CYCLINT1; Table 3b) [nM]
"CN1CCN(c2ccc(Nc3ncc4cc(C(=O)N(C)C)n(C56CC(C5)C6)c4n3)cc2)CC1 [Compound A88, 7-(bicyclo[1.1.1]pentan-1-yl)-N,N-dimethyl-2-((4-(4-methylpiperazin-1-yl)phenyl)amino)-7H-pyrrolo[2,3-d]pyrimidine-6-carboxamide dihydrogen chloride]",379,< 3.2,< 3.2,1650,1650,354,354,5.1,,,5.1
"CN(C)C(=O)c1cc2cnc(Nc3ccc(N4CCNCC4)cn3)nc2n1C12CC(C1)C2 [Compound A86, 7-(bicyclo[1.1.1]pentan-1-yl)-N,N-dimethyl-2-((5-(piperazin-1-yl)pyridin-2-yl)amino)-7H-pyrrolo[2,3-d]pyrimidine-6-carboxamide]",,16,16,27400,27400,18900,18900,670,20.1,20.1,
"CN(C)C(=O)c1cc2cnc(Nc3ccc(N4CCNCC4)cc3)nc2n1C12CC(C1)C2 [Compound A83, 7-(bicyclo[1.1.1]pentan-1-yl)-N,N-dimethyl-2-((4-(piperazin-1-yl)phenyl)amino)-7H-pyrrolo[2,3-d]pyrimidine-6-carboxamide]",,6.75,6.75,3410,3410,289,289,12.7,15,15,
"CC1CCN(c2ccc(Nc3ncc4cc(C(=O)N(C)C)n(C56CC(C5)C6)c4n3)cc2)CC1 [Compound A91, 7-(bicyclo[1.1.1]pentan-1-yl)-N,N-dimethyl-2-((4-(4-methylpiperidin-1-yl)phenyl)amino)-7H-pyrrolo[2,3-d]pyrimidine-6-carboxamide]",1330,25.5,25.5,5790,5790,690,690,7.14,,,
"CN(C)C(=O)c1cc2cnc(Nc3ccc(C4=CCNCC4)cn3)nc2n1C12CC(C1)C2 [Compound A87, 7-(bicyclo[1.1.1]pentan-1-yl)-N,N-dimethyl-2-((1′,2′,3′,6′-tetrahydro-[3,4′-bipyridin]-6-yl)amino)-7H-pyrrolo[2,3-d]pyrimidine-6-carboxamide]",,25.2,25.2,> 100000,> 100000,50000,50000,553,20,20,
"CN(C)C(=O)c1cc2cnc(Nc3ccc(N4CC5(CNC5)C4)cc3)nc2n1C12CC(C1)C2 [Compound A48, 2-((4-(2,6-diazaspiro[3.3]heptan-2-yl)phenyl)amino)-7-(bicyclo[1.1.1]pentan-1-yl)-N,N-dimethyl-7H-pyrrolo[2,3-d]pyrimidine-6-carboxamide]",,16.4,16.4,4860,4860,666,666,14.9,44,44,
"CN1CC2(C1)CN(c1ccc(Nc3ncc4cc(C(=O)N(C)C)n(C56CC(C5)C6)c4n3)cc1F)C2 [Compound A70, 7-(bicyclo[1.1.1]pentan-1-yl)-2-((3-fluoro-4-(6-methyl-2,6-diazaspiro[3.3]heptan-2-yl)phenyl)amino)-N,N-dimethyl-7H-pyrrolo[2,3-d]pyrimidine-6-carboxamide]",732,15.9,15.9,5010,5010,631,631,4.76,,,
"CN1CCN(c2ccc(Nc3ncc4cc(C(=O)N(C)C)n(C56CC(C5)C6)c4n3)cc2)CC1 [Compound A84, 7-(bicyclo[1.1.1]pentan-1-yl)-N,N-dimethyl-2-((4-(4-methylpiperazin-1-yl)phenyl)amino)-7H-pyrrolo[2,3-d]pyrimidine-6-carboxamide]",,2.44,2.44,1430,1430,185,185,5.84,6.1,6.1,5.84

# Now from value to compound, other results behind:
IC50 (CDK1/B) [nM],IC50 (CDK4-CYCLIND1; Table 3a) [nM],IC50 (CDK4-CYCLIND1; Table 3b) [nM],IC50 (CDK7 CyclinH; Table 3a) [nM],IC50 (CDK7 CyclinH; Table 3b) [nM],IC50 (CDK2-CYCLINA; Table 3a) [nM],IC50 (CDK2-CYCLINA; Table 3b) [nM],IC50 (CDK9-CYCLINT1; Table 3a) [nM],IC50 (CDK6-CYCLIND3; Table 3a) [nM],IC50 (CDK6-CYCLIND3; Table 3b) [nM],SMILES,IC50 (CDK9-CYCLINT1; Table 3b) [nM]
562,,,2680,2680,632,632,,,,"CN1CCN(C2CCN(c3ccc(Nc4ncc5cc(C(=O)N(C)C)n(C67CC(C6)C7)c5n4)cc3F)CC2)CC1 [Compound A68, 7-(bicyclo[1.1.1]pentan-1-yl)-2-((3-fluoro-4-(4-(4-methylpiperazin-1-yl)piperidin-1-yl)phenyl)amino)-N,N-dimethyl-7H-pyrrolo[2,3-d]pyrimidine-6-carboxamide]",
440,< 3.2,< 3.2,1520,1520,400,400,4.06,,,"CC(C)N1CCN(c2ccc(Nc3ncc4cc(C(=O)N(C)C)n(C56CC(C5)C6)c4n3)cc2)CC1 (single isomer, unassigned) [Compound A89, 7-(bicyclo[1.1.1]pentan-1-yl)-2-((4-(4-isopropylpiperazin-1-yl)phenyl)amino)-N,N-dimethyl-7H-pyrrolo[2,3-d]pyrimidine-6-carboxamide]",
453,4.52,4.52,2060,2060,660,660,5.46,,,"CN1CCC(c2ccc(Nc3ncc4cc(C(=O)N(C)C)n(C56CC(C5)C6)c4n3)cc2)CC1 [Compound A51, 7-(bicyclo[1.1.1]pentan-1-yl)-N,N-dimethyl-2-((4-(1-methylpiperidin-4-yl)phenyl)amino)-7H-pyrrolo[2,3-d]pyrimidine-6-carboxamide]",
655,6.98,6.98,2140,2140,742,742,< 3.2,,,"CN(C)CCOc1ccc(Nc2ncc3cc(C(=O)N(C)C)n(C45CC(C4)C5)c3n2)cc1F [Compound A93, 7-(bicyclo[1.1.1]pentan-1-yl)-2-((4-(2-(dimethylamino)ethoxy)-3-fluorophenyl)amino)-N,N-dimethyl-7H-pyrrolo[2,3-d]pyrimidine-6-carboxamide]",< 3.2
620,14.7,14.7,2650,2650,713,713,< 3.2,,,"Cc1cc(Nc2ncc3cc(C(=O)N(C)C)n(C45CC(C4)C5)c3n2)ccc1OCCN(C)C [Compound A92, 7-(bicyclo[1.1.1]pentan-1-yl)-2-((4-(2-(dimethylamino)ethoxy)-3-methylphenyl)amino)-N,N-dimethyl-7H-pyrrolo[2,3-d]pyrimidine-6-carboxamide]",< 3.2

# Source: patent US20220056037A1 (SPV THERAPEUTICS INC., priority 2018, published 2022)
